Measurements: publication PMC7436059, “Synthesis, Characterization, Photoluminescence, Molecular Docking and Bioactivity of Zinc (II) Compounds Based on Different Substituents” (Molecules, 2020)

Legend:
[1] = system: human esophageal cancer cell line (Eca-109); test: CCK-8 antiproliferative assay, Eca-109; format: cell-based; conditions: Eca-109, CCK-8, 72 h incubation
Source text: (§1) The in vitro antiproliferative properties of complexes 1–6 against Eca-109, A549 and Bel-7402 tumor lines were examined by employing the CCK-8 assay with cisplatin as a positive control. […] It is interesting that the different cells respond distinctively to these complexes. The complexes display remarkable cytotoxicity against Eca-109 in comparison to A549 and Bel-7402. […] Compared with that of zinc chloride complexes, the antiproliferative activity of these complexes is stronger. This activity of the bromide complexes follows the order of 1 > 3 > 5 and that of the iodide complexes is 2 > 4 > 6. […] It is worth mentioning that, among these compounds, the order of the activity is consistent with the electronegativity values (methylsulfonyl (−2.96) < methoxy (−2.86) < methyl (−2.28) of the substituents.
(§2) In this assay, human esophageal cancer cell line (Eca-109), human lung cancer cell line (A549), human hepatocellular carcinoma cell line (Bel-7402) and mouse monocyte macrophage (RAW264.7) were used to evaluate the antiproliferative activities or cytotoxicity in vitro by CCK-8 assay for determining cell viability with cisplatin as the positive control. All the cells are purchased from the American Type Culture Collection (Manassas, VA, USA). The cells were cultured in 100 µL complete DMEM growth media containing 10% FBS and 1% PS. First, 3000 cells were added to 96-well plates and were cultured overnight in a humidified atmosphere at 37 °C with 5% CO2. Then, complexes 1–6 and cisplatin were diluted with complete DMEM growth media to obtain the working concentration, which was added to the tissue culture plate and incubated for 72 h. The CCK-8 solution was added to each well. After 3 h incubation, the absorbance of each well at 490 nm was measured using an enzyme labeling instrument (Tecan, Grödig, Salzburg, Austrla). Cell morphology was measured and imaged by an inverted microscope (Nikon eclipses TS100, Tokyo, Japan) and a Nikon digital camera (Tokyo, Japan). The 50% inhibitive concentration (IC50) was calculated by Graph Pad Prism 5.0 (San Diego, CA, USA).

[2] = system: human lung cancer cell line (A549); test: CCK-8 antiproliferative assay, A549; format: cell-based; conditions: A549, CCK-8, 72 h incubation
Source text: as §1, §2

[3] = system: human hepatocellular carcinoma cell line (Bel-7402); test: CCK-8 antiproliferative assay, Bel-7402; format: cell-based; conditions: Bel-7042, CCK-8, 72 h incubation
Source text: as §1, §2

BSA = target: T1, BSA (Bos taurus, UniProt P02769); test: BSA fluorescence quenching titration (Stern-Volmer, Scatchard); format: binding, bovine; conditions: 1.6 μM BSA, Tris-HCl buffer; for Ksv (Stern-Volmer quenching constant): excitation 280 nm; for n (binding site number): Scatchard equation; for Kq (quenching rate constant): τ0 = 10^−8 s
T1 construct: purchased Asbio
Source text: The structure and transmission characteristics of BSA are similar to HSA [36]. BSA was used instead of HSA for drug delivery due to its ease to purify and stability. The binding of metal complexes to proteins was studied by fluorescence spectrum titration. Endogenous fluorescence of BSA comes from residues as tryptophan (Trp), tyrosine (Tyr) and phenylalanine (Phe), and conformational changes of BSA-binding metal complexes are obtained by observing the fluorescence of Trp residues at 350 nm. […] The same phenomenon occurs for the other compounds (shown in Figure S22, Supplementary Materials). […] This appearance may be due to a resonant energy transfer. […] The Stern–Volmer equation [37] (Equation (1)) was used to study the quenching mechanism of BSA and the complexes:I0/I = 1 + Kqτ0[Q] = 1 + Ksv[Q](1) where the fluorescence intensity of the protein is expressed by I0 and I in absence and in presence of quencher, respectively; Ksv is the Stern–Volmer quenching rate constant; Kq is the quenching rate constant; and τ0 and [Q] represent the lifetime of fluorescent molecule in absence of quencher (valued 10^−8 s) and quencher concentration, respectively. The maximum causing a value of dynamic quenching in biopolymers is 2 × 10^10 M^−1 S^−1 [23].
Calculation of the binding constants (Kb) was achieved according to the Scatchard equation [38] (Equation (2)):log [(I0 − I)/I] = logKb + nlog[Q](2) where Kb and n represent the binding constant and the binding site number, respectively. The binding constants Kb and the binding site number were obtained from the intercept and slope of the double logarithm regression plot between log [(I0 − I)/I] and log [Q]. The binding constant (>104 L mol^−1) was obtained under the condition of high binding affinity. […] It can be seen in Figure 7 that the absorption spectra of the complexes partially overlap with the […] spectrum of BSA.
Bovine serum albumin (BSA) was dissolved in a Tris-HCl buffer (pH = 7.4) solution to prepare a 1.6 × 10^−6 M BSA solution. The protein concentration was measured by spectrophotometry at 280 nm with the extinction coefficient of 44,300 M^−1 cm^−1. Stock solutions of complexes 1–6 (1 × 10^−2 M) were prepared in DMSO. The emission spectrum (300–600 nm) of BSA was monitored at the excitation wavelength of 280 nm.

T1 sequence (P02769 25-607): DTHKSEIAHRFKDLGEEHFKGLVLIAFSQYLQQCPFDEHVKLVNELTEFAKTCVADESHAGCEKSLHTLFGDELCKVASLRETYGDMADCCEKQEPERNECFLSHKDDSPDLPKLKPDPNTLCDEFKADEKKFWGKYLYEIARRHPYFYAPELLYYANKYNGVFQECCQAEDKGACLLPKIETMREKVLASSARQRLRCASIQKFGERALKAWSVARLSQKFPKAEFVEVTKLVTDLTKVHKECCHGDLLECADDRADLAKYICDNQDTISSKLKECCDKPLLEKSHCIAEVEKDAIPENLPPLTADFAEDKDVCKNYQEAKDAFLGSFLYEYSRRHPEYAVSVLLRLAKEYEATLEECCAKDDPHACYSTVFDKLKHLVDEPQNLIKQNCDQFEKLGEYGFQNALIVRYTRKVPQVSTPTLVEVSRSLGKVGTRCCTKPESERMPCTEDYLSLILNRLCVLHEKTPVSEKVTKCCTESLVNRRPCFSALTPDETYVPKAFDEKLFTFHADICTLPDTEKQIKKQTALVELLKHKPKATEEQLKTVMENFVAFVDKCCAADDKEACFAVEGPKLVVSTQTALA

| Structure (SMILES) | IC50 [1] | IC50 [2] | IC50 [3] | Ksv (Stern-Volmer quenching constant) (BSA) | n (binding site number) (BSA) | Kq (quenching rate constant) (BSA) |
| --- | --- | --- | --- | --- | --- | --- |
| COc1ccc(-c2cc(-c3ccccn3)nc(-c3ccccn3)c2)cc1.[Br][Zn][Br] [Compound 3, [ZnBr2L^2]] | 169 nM | 482 nM | 414 nM | 115000 M⁻¹ | 1.07 | 1.15e+13 M⁻¹ s⁻¹ |
| CS(=O)(=O)c1ccc(-c2cc(-c3ccccn3)nc(-c3ccccn3)c2)cc1.[I][Zn][I] [Compound 2, [ZnI2L^1]] | 66 nM | 290 nM | 331 nM | 176000 M⁻¹ | 0.83 | 1.76e+13 M⁻¹ s⁻¹ |
| Cc1ccc(-c2cc(-c3ccccn3)nc(-c3ccccn3)c2)cc1.[Br][Zn][Br] [Compound 5, [ZnBr2L^3]] | 197 nM | 748 nM | 616 nM | 46300 M⁻¹ | 0.87 | 4.63e+12 M⁻¹ s⁻¹ |
| CS(=O)(=O)c1ccc(-c2cc(-c3ccccn3)nc(-c3ccccn3)c2)cc1.[Br][Zn][Br] [Compound 1, [ZnBr2L^1]] | 79 nM | – | 358 nM | 176000 M⁻¹ | 0.72 | 1.76e+13 M⁻¹ s⁻¹ |
| Cc1ccc(-c2cc(-c3ccccn3)nc(-c3ccccn3)c2)cc1.[I][Zn][I] [Compound 6, [ZnI2L^3]] | 146 nM | 945 nM | – | 76700 M⁻¹ | 0.89 | 7.67e+12 M⁻¹ s⁻¹ |
| N.N.[Cl][Pt][Cl] [cisplatin, reference compound] | 5460 nM | 12000 nM | 3090 nM | – | – | – |
| COc1ccc(-c2cc(-c3ccccn3)nc(-c3ccccn3)c2)cc1.[I][Zn][I] [Compound 4, [ZnI2L^2]] | 75 nM | 307 nM | 397 nM | 163000 M⁻¹ | 1.08 | 1.63e+13 M⁻¹ s⁻¹ |
